Assay results published in patent publication US8552002B2 (Novartis AG, priority 2004, dated 2013).

Assays:
Type in all cases: biochemical
FGFR3 (K650E) = molecular target: T1, FGFR3 (K650E) (Homo sapiens, UniProt P22607, K650E); assay: Recombinant GST-FGFR-3-K650E tyrosine kinase assay (33P into poly(Glu,Tyr)); settings: 10 μM; Examples 1 to 169; read-out: FGFR3 (K650E) inhibition at 10 μM
T1 construct: amino acids 411-806 of the cytoplasmic domain of human FGFR-3, N-terminally fused to GST; made in house; host or cells: Sf9 insect cells (baculovirus)

KDR = molecular target: T2, KDR (Homo sapiens, UniProt P35968); assay: Inhibitory activity against KDR (VEGF-R2), in vitro data of Examples 170 and 207; settings: 10 μM; Examples 1 to 169; read-out: KDR inhibition at 10 μM
T2 construct: expressed in transfected cells; host or cells: CHO cells
Procedure, shortened: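 KDR tyrosine phosphorylation detected by luminescence after overnight 4° C capture of 20 μg lysate protein with PY20:AP antibody. Lysates came from cells given compound for 2 h at 37° C, then final 20 ng/ml VEGF for 5 min; compound-free medium as control.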

Tek = molecular target: T3, Tek (Homo sapiens, UniProt Q02763); assay: Recombinant GST-Tek (Tie-2) tyrosine kinase assay (33P into poly(Glu,Tyr)); settings: Examples 1 to 169
T3 construct: amino acids 773-1124 of the cytoplasmic kinase domain of human Tek, N-terminally fused to GST; made in house; host or cells: Sf9 insect cells (baculovirus)
Procedure, shortened: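 Read-out is filter-bound 33P in poly(Glu,Tyr) 4:1 (10 μg/mL) after 30 min at ambient temperature with 4.0 μM ATP. Enzyme: 150 ng human GST-Tek (aa 773-1124) from insect cells, in Tris pH 7.5 with Mn2+/Mg2+ and vanadate. IC50 fitted linearly over four concentrations, usually 0.01-10 μM.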

T1 sequence (P22607 411-806 K650E): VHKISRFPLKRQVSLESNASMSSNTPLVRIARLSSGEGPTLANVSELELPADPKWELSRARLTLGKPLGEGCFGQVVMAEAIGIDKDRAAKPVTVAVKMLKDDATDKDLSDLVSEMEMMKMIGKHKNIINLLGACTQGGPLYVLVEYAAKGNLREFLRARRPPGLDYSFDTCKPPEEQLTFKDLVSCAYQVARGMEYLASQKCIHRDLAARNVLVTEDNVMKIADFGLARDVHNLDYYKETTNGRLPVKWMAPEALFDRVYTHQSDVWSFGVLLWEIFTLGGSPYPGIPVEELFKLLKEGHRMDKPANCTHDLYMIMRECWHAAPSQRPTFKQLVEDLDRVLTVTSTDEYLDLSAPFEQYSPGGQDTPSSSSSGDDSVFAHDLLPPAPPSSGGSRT
T2 sequence (P35968 20-1356): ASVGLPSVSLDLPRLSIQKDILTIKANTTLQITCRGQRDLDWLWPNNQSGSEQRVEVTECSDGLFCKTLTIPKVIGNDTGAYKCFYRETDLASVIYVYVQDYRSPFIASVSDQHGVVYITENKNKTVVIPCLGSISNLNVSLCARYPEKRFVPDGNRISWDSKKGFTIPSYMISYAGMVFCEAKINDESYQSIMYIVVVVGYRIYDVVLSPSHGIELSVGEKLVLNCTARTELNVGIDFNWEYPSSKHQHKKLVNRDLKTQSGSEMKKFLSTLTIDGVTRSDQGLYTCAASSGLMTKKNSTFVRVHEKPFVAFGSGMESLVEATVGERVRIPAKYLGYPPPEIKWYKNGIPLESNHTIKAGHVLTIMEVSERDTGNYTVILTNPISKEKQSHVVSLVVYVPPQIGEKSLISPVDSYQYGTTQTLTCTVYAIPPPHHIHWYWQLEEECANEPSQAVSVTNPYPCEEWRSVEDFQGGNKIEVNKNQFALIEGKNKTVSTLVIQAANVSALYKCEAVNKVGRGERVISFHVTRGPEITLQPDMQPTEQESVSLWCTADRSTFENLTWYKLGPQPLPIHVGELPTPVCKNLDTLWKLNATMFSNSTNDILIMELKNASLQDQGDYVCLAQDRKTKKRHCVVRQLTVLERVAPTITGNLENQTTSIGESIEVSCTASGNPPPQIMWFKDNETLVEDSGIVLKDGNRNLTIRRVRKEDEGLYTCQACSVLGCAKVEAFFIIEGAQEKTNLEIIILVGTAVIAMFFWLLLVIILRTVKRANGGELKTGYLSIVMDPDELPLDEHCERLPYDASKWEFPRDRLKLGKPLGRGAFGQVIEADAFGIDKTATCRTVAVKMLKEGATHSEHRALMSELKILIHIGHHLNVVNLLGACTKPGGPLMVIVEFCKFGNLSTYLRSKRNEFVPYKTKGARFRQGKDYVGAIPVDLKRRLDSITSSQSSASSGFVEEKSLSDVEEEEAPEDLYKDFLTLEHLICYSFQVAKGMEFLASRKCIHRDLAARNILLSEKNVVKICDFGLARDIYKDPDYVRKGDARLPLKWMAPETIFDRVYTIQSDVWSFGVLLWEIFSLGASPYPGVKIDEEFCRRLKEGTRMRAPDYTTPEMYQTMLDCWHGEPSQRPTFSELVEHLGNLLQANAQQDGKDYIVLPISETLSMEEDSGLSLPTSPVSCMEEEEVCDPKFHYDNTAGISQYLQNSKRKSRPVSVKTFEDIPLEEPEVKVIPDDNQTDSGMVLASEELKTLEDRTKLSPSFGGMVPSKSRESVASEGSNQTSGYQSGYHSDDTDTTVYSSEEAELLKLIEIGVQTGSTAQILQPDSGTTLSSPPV
T3 sequence (Q02763 773-1124): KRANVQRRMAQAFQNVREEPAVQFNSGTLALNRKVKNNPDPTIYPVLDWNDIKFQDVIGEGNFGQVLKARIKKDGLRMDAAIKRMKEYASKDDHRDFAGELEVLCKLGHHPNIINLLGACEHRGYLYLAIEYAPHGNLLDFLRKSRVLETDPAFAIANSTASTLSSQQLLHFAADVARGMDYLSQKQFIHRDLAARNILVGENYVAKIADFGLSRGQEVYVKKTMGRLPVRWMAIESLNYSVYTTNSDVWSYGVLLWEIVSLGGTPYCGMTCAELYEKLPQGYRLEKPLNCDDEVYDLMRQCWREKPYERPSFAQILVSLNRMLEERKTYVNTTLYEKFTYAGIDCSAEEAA

Structure (SMILES)	inhibition at 10 µM (FGFR3 (K650E)) [%]	inhibition at 10 µM (KDR) [%]	inhibition at 10 µM (Tek) [%]
CCN1CCN(c2ccc(Nc3cc(NC(=O)Nc4c(Cl)c(OC)cc(OC)c4Cl)ncn3)cc2)CC1 [Example 160, 1-(2,6-Dichloro-3,5-dimethoxy-phenyl)-3-{6-[4-(4-ethyl-piperazin-1-yl)-phenylamino]-pyrimidin-4-yl}-urea]	27 to 100	67 to 100	12 to 100
COc1cc(NC(=O)N(C)c2cc(Nc3cccc(N4CCN(C)CC4)c3)ncn2)c(Cl)c(OC)c1 [Example 51, 3-(2-Chloro-3,5-dimethoxy-phenyl)-1-methyl-1-{6-[3-(4-methyl-piperazin-1-yl)-phenylamino]-pyrimidin-4-yl}-urea]	27 to 100	67 to 100	12 to 100
CN1CCN(c2ccc(Nc3cc(NC(=O)Nc4ccccc4Br)ncn3)cc2)CC1 [Example 94, 1-(2-Bromo-phenyl)-3-{6-[4-(4-methyl-piperazin-1-yl)-phenylamino]-pyrimidin-4-yl}-urea]	27 to 100	67 to 100	12 to 100
CCN1CCN(Cc2ccc(Nc3cc(N(C)C(=O)Nc4c(Cl)c(OC)cc(OC)c4Cl)ncn3)cc2C(F)(F)F)CC1 [Example 169, 3-(2,6-Dichloro-3,5-dimethoxy-phenyl)-1-{6-[4-(4-ethyl-piperazin-1-ylmethyl)-3-trifluoromethyl-phenylamino]-pyrimidin-4-yl}-1-methyl-urea]	27 to 100	67 to 100	12 to 100
CCN(C(=O)Nc1cccc(OC)c1OC)c1cc(Nc2ccc(N3CCN(C)CC3)cc2)ncn1 [Example 46, 3-(2,3-Dimethoxy-phenyl)-1-ethyl-1-{6-[4-(4-methyl-piperazin-1-yl)-phenylamino]-pyrimidin-4-yl}-urea]	27 to 100	67 to 100	12 to 100
COc1cc(C)c(NC(=O)Nc2cc(Nc3ccc(N4CCN(C)CC4)cc3)ncn2)cc1OC [Example 34, 1-(4,5-Dimethoxy-2-methyl-phenyl)-3-{6-[4-(4-methyl-piperazin-1-yl)-phenyl-amino]-pyrimidin-4-yl}-urea]	27 to 100	67 to 100	12 to 100
CCN(C(=O)Nc1c(Cl)c(OC)cc(OC)c1Cl)c1cc(Nc2cccc(CN(C)C)c2)ncn1 [Example 151, 3-(2,6-Dichloro-3,5-dimethoxy-phenyl)-1-[6-(3-dimethylaminomethyl-phenylamino)-pyrimidin-4-yl]-1-ethyl-urea]	27 to 100	67 to 100	12 to 100
CCN1CCN(c2ccc(Nc3cc(N(C)C(=O)Nc4c(Cl)c(OC)cc(OC)c4Cl)ncn3)cc2)CC1 [Example 145, 3-(2,6-Dichloro-3,5-dimethoxy-phenyl)-1-{6-[4-(4-ethyl-piperazin-1-yl)-phenylamino]-pyrimidin-4-yl}-1-methyl-urea]	27 to 100	67 to 100	12 to 100
COc1cc(NC(=O)Nc2cc(Nc3cccc(N4CCN(C)CC4)c3)ncn2)c(Cl)c(OC)c1 [Example 41]	27 to 100	67 to 100	12 to 100
COc1cc(NC(=O)N(CCc2ccccn2)c2cc(Nc3ccccc3)ncn2)c(Cl)c(OC)c1 [Example 58, 3-(2-Chloro-3,5-dimethoxy-phenyl)-1-(6-phenylamino-pyrimidin-4-yl)-1-(2-pyridin-2-yl-ethyl)-urea]	27 to 100	67 to 100	12 to 100
COc1cc(OC)c(Cl)c(NC(=O)N(C)c2cc(Nc3cccc(CN4CCN(C(C)C)CC4)c3)ncn2)c1Cl [Example 161, 3-(2,6-Dichloro-3,5-dimethoxy-phenyl)-1-{6-[3-(4-isopropyl-piperazin-1-ylmethyl)-phenylamino]-pyrimidin-4-yl}-1-methyl-urea]	27 to 100	67 to 100	12 to 100

The next lines start with the values.

inhibition at 10 µM (FGFR3 (K650E)) [%]	inhibition at 10 µM (KDR) [%]	inhibition at 10 µM (Tek) [%]	Structure (SMILES)
27 to 100	67 to 100	12 to 100	O=C(Nc1cc(Nc2ccc(OCCN3CCOCC3)cc2)ncn1)Nc1ccccc1Br [Example 97, 1-(2-Bromo-phenyl)-3-{6-[4-(2-morpholin-4-yl-ethoxy)-phenylamino]-pyrimidin-4-yl}-urea]
27 to 100	67 to 100	12 to 100	CCN(CC)CCOc1ccc(Nc2cc(NC(=O)Nc3cc(OC)cc(OC)c3Cl)ncn2)cc1 [Example 42, 1-(2-Chloro-3,5-dimethoxy-phenyl)-3-{6-[4-(2-diethylamino-ethoxy)-phenylamino]-pyrimidin-4-yl}-urea]
27 to 100	67 to 100	12 to 100	COc1ccc(Cl)cc1NC(=O)Nc1cc(Nc2ccc(N3CCN(C)CC3)cc2)ncn1 [Example 78, 1-(5-Chloro-2-methoxy-phenyl)-3-{6-[4-(4-methyl-piperazin-1-yl)-phenylamino]-pyrimidin-4-yl}-urea]
27 to 100	67 to 100	12 to 100	O=C(Nc1cc(Nc2ccc(N3CCOCC3)cc2)ncn1)Nc1c(F)cccc1F [Example 109, 1-(2,6-Difluoro-phenyl)-3-[6-(4-morpholin-4-yl-phenylamino)-pyrimidin-4-yl]-urea]
27 to 100	67 to 100	12 to 100	CCN(C(=O)Nc1c(Cl)c(OC)cc(OC)c1Cl)c1cc(Nc2ccc(OCCN3CCCC3)cc2)ncn1 [Example 156, 3-(2,6-Dichloro-3,5-dimethoxy-phenyl)-1-ethyl-1-{6-[4-(2-pyrrolidin-1-yl-ethoxy)-phenylamino]-pyrimidin-4-yl}-urea]
27 to 100	67 to 100	12 to 100	CCN(CC)CCOc1ccc(Nc2cc(NC(=O)Nc3c(Cl)cccc3Cl)ncn2)cc1 [Example 100, 1-(2,6-Dichloro-Phenyl)-3-{6-[4-(2-diethylamino-ethoxy)-phenylamino]-pyrimidin-4-yl}-urea]
27 to 100	67 to 100	12 to 100	COc1cc(NC(=O)Nc2cc(Nc3ccccc3)ncn2)c(Cl)c(OC)c1 [Example 39, 1-(2-Chloro-3,5-dimethoxy-phenyl)-3-(6-phenylamino-pyrimidin-4-yl)-urea]
27 to 100	67 to 100	12 to 100	CCN(CC)CCOc1ccc(Nc2cc(NC(=O)Nc3ccccc3Cl)ncn2)cc1 [Example 126, 1-(2-Chloro-phenyl)-3-{6-[4-(2-diethylamino-ethoxy)-phenylamino]-pyrimidin-4-yl}-urea]
27 to 100	67 to 100	12 to 100	CCN(CC)c1ccc(Nc2cc(NC(=O)Nc3c(Cl)cccc3Cl)ncn2)cc1 [Example 107, 1-(2,6-Dichloro-phenyl)-3-[6-(4-diethylamino-phenylamino)-pyrimidin-4-yl]-urea]
27 to 100	67 to 100	12 to 100	COc1cc(NC(=O)Nc2cc(Nc3ccc(N4CCN(C)CC4)cc3)ncn2)ccc1F [Example 32, 1-(4-Fluoro-3-methoxy-phenyl)-3-{6-[4-(4-methyl-piperazin-1-yl)-phenyl-amino]-pyrimidin-4-yl}-urea]
